Reference: US8329913B2, “Carbazole derivative, solvate thereof, or pharmaceutically acceptable salt thereof” (Zeria Pharmaceutical Co., Ltd., priority 2004, dated 2012)

Target: T1, human PPARα (Homo sapiens, UniProt Q07869)
T1 construct: 1.6 kb of DNA fragment including human PPARα gene was collected from the gel; expressed in transfected cells; host or cells: CV-1 cells, transient transfection with pCI-hPPARa, pCI-hRXRa and the reporter pGL3-PPRE3-TK
T1 sequence (Q07869 1-468): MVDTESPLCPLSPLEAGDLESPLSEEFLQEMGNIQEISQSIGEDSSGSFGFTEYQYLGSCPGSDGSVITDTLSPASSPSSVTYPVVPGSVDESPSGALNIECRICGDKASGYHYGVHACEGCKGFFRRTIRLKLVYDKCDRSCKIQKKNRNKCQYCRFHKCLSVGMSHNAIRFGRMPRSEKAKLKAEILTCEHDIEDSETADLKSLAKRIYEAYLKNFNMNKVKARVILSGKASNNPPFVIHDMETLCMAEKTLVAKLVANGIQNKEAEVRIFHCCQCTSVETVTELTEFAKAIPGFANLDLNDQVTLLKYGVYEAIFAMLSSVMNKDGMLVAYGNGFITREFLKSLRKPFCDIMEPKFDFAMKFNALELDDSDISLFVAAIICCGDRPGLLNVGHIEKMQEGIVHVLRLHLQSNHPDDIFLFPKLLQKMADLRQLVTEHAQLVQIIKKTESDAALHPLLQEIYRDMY
T1 sequence (P19793 1-462 partner): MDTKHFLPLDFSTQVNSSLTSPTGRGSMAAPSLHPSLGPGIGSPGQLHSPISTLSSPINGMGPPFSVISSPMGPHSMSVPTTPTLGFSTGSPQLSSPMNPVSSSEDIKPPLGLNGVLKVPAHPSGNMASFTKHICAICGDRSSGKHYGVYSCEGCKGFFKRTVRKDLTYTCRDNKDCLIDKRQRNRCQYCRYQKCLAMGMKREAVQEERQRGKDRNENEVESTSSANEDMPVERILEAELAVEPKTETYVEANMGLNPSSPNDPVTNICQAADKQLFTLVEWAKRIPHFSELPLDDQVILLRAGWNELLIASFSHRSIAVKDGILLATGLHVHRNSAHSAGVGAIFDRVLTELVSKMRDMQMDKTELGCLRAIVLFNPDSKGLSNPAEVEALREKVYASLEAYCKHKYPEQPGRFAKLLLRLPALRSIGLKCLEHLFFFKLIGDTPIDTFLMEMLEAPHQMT
Assay: Human PPARα agonist assay (luciferase reporter in transfected CV-1 cells)
Type: cell-based
Details: at 1 μM test compound alone; 100% = 1 μM stimulant (GW7647) only; CV-1 cells expressing human PPARα and RXRα
Protocol: CV-1 cells (96 well plate), where human PPARα and RXRα has expressed in the transient transfection of reporter plasmid (see reference 6a) were washed once with PBS (100 μL/well), and then supplemented with 100 μL/well of DMEM medium including 10% of fetal bovine serum to which test compounds at final concentrations of 10 nM, 30 nM, 100 nM, 300 nM, 1 μM, and 3 μM, as well as GW7647 (not limited to GW7647 shown as an example, but may be any PPARα agonist) at a final concentration of 1 nM as a stimulant were added, and incubated in a 5% CO2 incubator at 37° C. for 24 hours. After removing the medium, the CV-1 cells were washed once with PBS (100 μL/well), and supplemented with 60 μL/well of 1× Passive Lysis Buffer (manufactured by Promega Corporation). The CV-1 cells were incubated at room temperature for 30 minutes, stirred, and then by using Dual-Luciferase Reporter Assay System (manufactured by Promega Corporation), luciferase activities of firefly and renilla were measured using 1420 ARVO Multilabel Counter (manufactured by Wallac Oy). Also, the same experiments as that described above were respectively carried out for the cases where only the above-mentioned stimulant (10 nM, 100 nM, 1 μM) were used, where only the above-mentioned test compounds were used, or where neither was used (nonsupplemented), and luciferase activities of firefly and renilla were measured. Values corrected by dividing the firefly luciferase activities by the renilla luciferase activities were calculated as specific activities and used for evaluations. […]
Also, human PPARα agonist activities of the test compounds were evaluated by using a percentage (activity) where the specific activity when nonsupplemented is regarded as 0% and the specific activity in case only 1 μM stimulant was added is regarded as 100%, from the specific activity in case only the test compound is used.
CV-1 cells were cultured in DMEM medium (manufactured by Invitrogen Corporation) including 10% fetal bovine serum (manufactured by Dainippon Pharmaceutical Co., Ltd.) in 225T-Flask (manufactured by Corning Costar). The cells were detached by 0.5 g/L trypsin-0.2 g/L EDTA (ethylene diamine tetra-acetic acid) (manufactured by Invitrogen Corporation), and then suspended in the DMEM medium including 10% fetal bovine serum to a cell concentration of 2×10^5 cells/mL. Thereafter, the cells were seeded into 96 well plate at 2×10^4 cells/0.1 mL/well, incubated in the CO2 incubator at 37° C. overnight, and then the plasmids prepared by the above-mentioned reference 2a, reference 3a, and reference 4a were transfected into cells by using a lipofectamine reagent (manufactured by Invitrogen Corporation) according to the attached manual.
Namely, after CV-1 cells were cultured overnight, the cells were washed with PBS (100 μL/well). Thereafter the cells were incubated for 5 hours at 37° C./5% CO2 in the MEM medium (manufactured by Invitrogen Corporation) including 430 ng/mL of human PPARα expression plasmid (pCI-hPPARa) prepared by the reference 2a, 430 ng/mL of human RXRα expression plasmid (pCI-hRXRa) prepared by the reference 3a, and 140 ng/mL of the reporter plasmid (pGL3-PPRE3-TK) prepared by the reference 4a, 10 ng/mL of phRL-TK vector (manufactured by Promega Corporation) and 2 μL/mL of lipofectamine.

Compound: CC[C@H](Oc1cccc2c1c1ccccc1n2Cc1ccc(OCc2nc(-c3ccccc3)oc2C)c(OC)c1)C(=O)[O-].[Na+] [Example 38, sodium (S)-(+)-2-{9-[3-methoxy-4-((5-methyl-2-phenyl-oxazole-4-yl)methoxy)-benzyl]-9H-carbazole-4-yloxy}butyrate]
- Human PPARα agonist activities, Activity % (at 1 μM): 32%

Compound: COc1cc(Cn2c3ccccc3c3c(O[C@H](C)C(=O)[O-])cccc32)ccc1OCc1nc(-c2ccccc2)oc1C.[Na+] [Example 43, sodium (R)-2-{9-[3-methoxy-4-((5-methyl-2-phenyl-oxazole-4-yl)methoxy)-benzyl]-9H-carbazole-4-yloxy}propionate]
- Human PPARα agonist activities, Activity % (at 1 μM): 35%
